# From article PMC12867150, “A fungi-derived cyclic peptide enhances Th9-mediated antitumor immunity by targeting ZAP70 and SREBP1” (The Journal of Clinical Investigation, 2025)
# Several values for one entry are separate records, joined by “and”; a condition that tells them apart may be missing. Equal entries are not always repeated.
# Key:
# [1] = test system: Th9 signature genes (Irf4, Batf3, Batf, and Il9); experiment: Quantitative RT-PCR of Th9 signature genes (Figure 1J); format: cell-based, mouse
# Description: Total RNA was extracted from T cells using RNAex Pro Reagent (AG, catalog AG21102) following the manufacturer’s instructions. First-strand complementary DNA (cDNA) was synthesized using the Hifair III 1st Strand cDNA Synthesis SuperMix (YEASEN, catalog 11137ES10). Quantitative real-time PCR (qRT-PCR) was conducted on a QuantStudio 3 Real-Time PCR System (Thermo Fisher Scientific) using ChamQ Universal SYBR qPCR Master Mix (Vazyme, catalog Q711-02) and gene-specific primers (Tsingke Biotech).
# For normalization, mouse samples were referenced to Gapdh or Actb, and human samples were normalized to GAPDH. Relative gene expression was calculated using the ΔΔCt method. Primer sequences are listed in Supplemental Table 5.
# [2] = test system: Th9 cells; experiment: Th9 differentiation, dose response, IL-9+ cells by flow cytometry (Figure 1D); format: cell-based, mouse; parameters: IL-9+ Th9 differentiation: unit not given here; conditions: for IL-9+ Th9 differentiation: flow cytometry, individual replicates, n = 6
# Description: IL-9 expression peaked at 10 μM, which was used for all subsequent experiments (Figure 1D).
# Naive CD4^+ T cells were isolated from the spleens of C57BL/6J or CD45.1^+ OT-II mice using the MojoSort Mouse CD4 Naive T Cell Isolation Kit (BioLegend, catalog 480040), following the manufacturer’s protocol. Purified cells were cultured in RPMI-1640 medium supplemented with 10% FBS, 1% penicillin-streptomycin, and 0.1% β-mercaptoethanol (Gibco, catalog 21985023).
# T cell polarization was initiated under plate-bound anti-CD3 (2 μg/mL, clone 17A2, BioXCell, catalog BE0002) and soluble anti-CD28 (1 μg/mL, clone 37.51, BioXCell, catalog BE0015-1) stimulation, with the addition of cytokines and neutralizing antibodies specific to each subset. For Th9 cells, these included IL-4 (10 ng/mL, Peprotech, catalog 400-04), TGF-β (1 ng/mL, EPOTO Biotech, catalog HF-2021), anti–IL-12 (5 μg/mL, clone C17.8, BioXCell, catalog BE0051), and anti–IFN-γ (10 μg/mL, clone XMG1.2, BioXCell, catalog BE0055); for Th1 cells, these included IL-12 (10 ng/mL, GenScript, catalog Z03211-50) and anti–IL-4 (5 μg/mL, clone 11B11, BioXCell, catalog BE0045); for Th2 cells, these included IL-4 (50 ng/mL), anti–IFN-γ (20 μg /mL), anti–IL-12 (5 μg/mL), Th17 cells: IL-6 (20 ng/mL, EPOTO Biotech, catalog MF-1006), TGF-β (1 ng/mL), IL-1β (10 ng/mL, Peprotech, catalog AF-211-11B), anti–IFN-γ (10 μg/mL), anti–IL-12 (5 μg/mL), and anti–IL-4 (5 μg/mL); and for Tregs, these included TGF-β (3 ng/mL). After 3 days of initial culture, cells were either collected for downstream assays or continued in extended culture with refreshed cytokines to maintain lineage commitment.
# During the entire culture period, experimental groups were treated continuously with the indicated compound at the designated concentration, whereas control groups received an equal volume of DMSO.
# BioLegend, Cat. No. 422301 or Mouse TruStain FcX™, BioLegend, Cat. No. 101319) for 10 minutes at 4°C. For surface marker detection, cells were stained with fluorochrome-conjugated monoclonal antibodies in 96-well V-bottom plates and incubated on ice for 30 minutes. After staining, cells were washed twice and resuspended in FACS buffer for analysis.
# Prior to intracellular cytokine staining, cells were restimulated for 4 hours with PMA (Absin, Cat. No. abs9107), ionomycin (Sigma-Aldrich, Cat. No. I0634), and brefeldin A (MedChemExpress, Cat. No. HY-16592). For intracellular cytokine staining, cells were first surface-stained as described above, then fixed and permeabilized using the BD Cytofix/Cytoperm™ kit (BD Biosciences, Cat. No. 554714) according to the manufacturer ’s protocol. Intracellular proteins were stained with directly conjugated antibodies targeting IL-9, IL-17a, IL-4, IFN-γ, TNF-α, FOXP3, p-ZAP70, Perforin, and […]
# [3] = EpA-treated Th9, ΔΔCt, individual replicates, n = 3
substance,measurement,setting,value
anteiso-C15 Leu7 surfactin [EpA],Batf3 relative mRNA expression,[1]; [3],1.532 and 2.109 and 2.3014
same,Batf relative mRNA expression,[1]; [3],1.713 and 1.736 and 1.548
same,Il9 relative mRNA expression,[1]; [3],23.4757 and 53.1262 and 48.3738
same,Irf4 relative mRNA expression,[1]; [3],1.345 and 1.289 and 1.126
same,Th9-associated transcription factors and effector cytokines,[1]; result in words,significantly upregulated
same,IL-9+ Th9 differentiation,[2]; EpA 1 μM,49.4 and 48.8 and 36.1 and 37.3 and 36.5 and 50.3
same,IL-9+ Th9 differentiation,[2]; EpA 10 μM,82.5 and 80.4 and 79.9 and 77.4 (2×) and 76.3
same,IL-9+ Th9 differentiation,[2]; EpA 20 μM,52.4 and 52.2 and 48.1 and 34.8 and 36 and 37.3
same,concentration at which IL-9 expression peaked,[2]; increasing concentrations of EpA,10 µM
